Assay results as given in patent US6884818B1, “Pharmaceutical compositions containing 8-chloro-3 (β-diethylaminoethyl)-4-methyl-7-ethoxycarbonylmethoxy coumarin base and the salts thereof with cholesterol-lowering activity” (Fidia Farmaceutici S.p.A., priority 1999, dated 2005).

Columns and labels:
[1] = tested on: rabbits on a high-cholesterol diet; assay: Test No. 3: cholesterol levels in rabbits on 0.1% cholesterol diet without diabetes; format: in vivo, rabbit; conditions: cholesterol around 250 mg/dl, versus control group and scoparone group (FIG. 3)
Procedure: As further confirmation of this interesting result, we prepared another experimental model. In this case, hypercholesterolaemia was induced in rabbit by administration of a 0.1% cholesterol diet, without simultaneously inducing diabetes. In these experimental conditions, cholesterol levels of around 250 mg/dl were obtained, that is to say, values that are compatible with the pathological situation normally observed in humans affected by hypercholesterol. The rabbits were divided into three treatment groups: controls treated with saline, a second group receiving scoparone and a third receiving cloricromene.

[2] = tested on: hypercholesterolaemic-diabetic rabbits; assay: Test No. 2: weekly cholesterol levels in rabbits with alloxan diabetes on 1% cholesterol diet; format: in vivo
Text: In the same experimental model, in which a diabetic pathology is induced by treating the animals with alloxan, and hypercholesterolaemia is induced by administering a 1% cholesterol diet, we monitored at weekly intervals the cholesterol levels of the rabbits, which had been divided into the following treatment groups: • 1. Control, treated with saline solution • 2. Scoparone • 3. Cloricromene

[3] = tested on: hypercholesterolaemic-diabetic rabbits; assay: Test No. 1: tolerability and cholesterol-lowering effect in rabbits on 1% cholesterol diet with alloxan-induced diabetes; format: in vivo, rabbit; conditions: for body weight curve: treated chronically for 4-5 weeks, weighed weekly, versus untreated control group (FIG. 1)
Procedure: A preliminary experiment was performed to assess the ability of cloricromene to reduce plasma levels of cholesterol and triglycerides in rabbits fed on a high-fat diet, treated chronically for 4-5 weeks. As reference product we used scoparone, as it is the only coumarin derivative of vegetable origin with a documented effect on these parameters.
The experimental model induces high levels of cholesterol and triglycerides in the plasma by a 1% cholesterol-enriched diet, simultaneously inducing diabetes by injection of alloxan, a highly toxic product for the β cells of the pancreas. In this way, it is possible to reach very high values of cholesterol and triglycerides in the system rapidly. The body weight of the animals and the plasma levels of the test parameters were assessed weekly throughout the experiment.

[4] = tested on: patients with Peripheral Vascular Disease (PVD) at Fontaine stage II; assay: Multicentre, double-blind, randomised, placebo-controlled study in patients with Peripheral Vascular Disease (Fontaine stage II); format: in vivo, human
Text: We conducted a multicentre, double-blind, randomised study, controlled versus placebo, on 159 patients with Peripheral Vascular Disease (PVD) at Fontaine stage II, the classic symptom of which is Intermittent Claudication (IC).
In our study, besides assessing the effect of cloricromene on IC, we also studied the cholesterol-lowering effects of the drug and the incidence of major cardiovascular events (myocardial infarction, stroke, vascular death, progression to Fontaine stages III-IV) after a treatment period of six months.
In analysing the cholesterol-lowering effect, 117 patients were considered who presented cholesterol values at baseline of over 190 mg/dI.
The critical value of 190 mg/dl was selected on the basis of data from the international literature that report this value as the risk threshold in pathologies such as cardiac ischaemia and atherosclerosis in general, in which excessive cholesterol represents a real risk factor. Therefore, the patients who presented cholesterol values equal to or over 190 mg/dl were considered to be at risk from said pathologies.
For the purposes of this analysis, 58 patients were treated for 6 months with 200 mg of cloricromene per day (one capsule of 100 mg twice a day), while the remaining 59 patients were treated with placebo (Table). All the patients also took aspirin at a dose of 160 mg/day throughout the trial.

[5] = 1% cholesterol diet + alloxan, 4-5 weeks, cloricromene group versus scoparone group

Compound | cholesterol levels [1] | cholesterol levels ([2]; 1% cholesterol diet + alloxan, versus saline control and scoparone, evident from third week of treatment (FIG. 2)) | plasma levels of cholesterol [3, 5] | plasma levels of triglycerides [3, 5] | body weight curve ([3]; 1% cholesterol diet + alloxan) | toxic activity on repeated administration over long periods ([3]; repeated administration, in comparison to scoparone) | Cholesterol levels at week 24 ([4]; 58 patients with baseline cholesterol over 190 mg/dl, after 6 months of 200 mg cloricromene per day (100 mg capsule twice a day), plus aspirin 160 mg/day, p = 0.0035 vs week 0) | Cholesterol levels at Week 0 ([4]; 58 patients with baseline cholesterol over 190 mg/dl, baseline before 200 mg cloricromene per day, plus aspirin 160 mg/day) | difference in cholesterol between treatment groups (analysis of covariance) ([4]; cloricromene versus placebo, 6 months, p=0.04, α=0.05) | major cardiovascular events or deaths ([4]; patients, treatment period of six months) | number of animals that completed the treatment ([2]; end of experiment, scoparone group versus cloricromene group)
CCOC(=O)COc1ccc2c(C)c(CCN(CC)CC)c(=O)oc2c1Cl [cloricromene, 8-chloro-3(β-diethylaminoethyl)-4-methyl-7-ethoxycarbonylmethoxy coumarin] | markedly lower | markedly lower than those of both the control group and that treated with scoparone | tended to be lower | tended to be lower | superimposable on that of the control group | absolute lack of toxic activity | 229 ± 32 | 243 ± 31 | statistically significant in favour of the group treated with cloricromene | no major cardiovascular events or deaths were observed | –
COc1cc2ccc(=O)oc2cc1OC [scoparone] | – | – | – | – | marked and progressive reduction in body weight | – | – | – | – | – | considerably lower
